# According to patent US12716888B2, “Composition for diagnosis or treatment of anticancer drug resistance” (priority 2020, dated 2026):
# Legend:
# [1] = tested on: ECF-resistant MKN-74 cells; assay: Crystal violet staining and WST-1 analysis of regrowth after ECF treatment of NINJ2 knockdown cells; assay type: cell-based, human; settings: 3 weeks after ECF treatment; NINJ2 knockdown ECF-resistant MKN-74 cells
# Experimental: To evaluate whether NINJ2 is involved in drug resistance, a stable NINJ2 knockdown (K/D) ECF-resistant cancer cell line was prepared using shRNA lentiviral particles and puromycin. More specifically, for stable NINJ2 knockdown in ECF-resistant MKN-74 cells, two shRNAs (TRCN0000063773 (Clone-1) and TRCN0000063775 (Clone-2)) targeting different partial regions of NINJ2 genes (Isoform-1, Isoform-2 and Isoform-3) as shown in Table 1 below were used, and a non-targeting pLKO.1-puro shRNA control (SHC002) was used as a negative control. The shRNA clones (TRCN0000063773, TRCN0000063775 and SHC002) containing the pMDLg/pRRE, pRSV-Rev and pMD2.G plasmids, respectively, were transfected into 293T cells using Fugene HD (Promega) according to the manufacturer's instructions. After 48 hours, each supernatant was collected and filtered, and ECF-resistant MKN-74 cells were transduced with lentiviral particles and cultured in a growth medium containing puromycin. After NINJ2 knockdown in the lentivirus-transduced MKN-74 cells was confirmed using qRT-PCR, the cells were treated with ECF, and an examination was made as to whether cancer cells in the negative control (Mock) and the shNINJ2 groups (clone 1 and clone 2) re-grew.
# [2] = tested on: ECF-resistant cancer cells (RES) from the MKN-28/74 cell line; assay: Nude mouse xenograft of ECF-resistant MKN-28/74 cells given ECF and siRNA; assay type: in vivo, Balb/c nude mice; settings: ECF (5.7 mg/kg epirubicin, 6.67 mg/kg cisplatin, 22 mg/kg 5-FU) intratumorally once a week; NINJ2 mRNA expression inhibited
# Experimental: FIGS. 9A and 9B show the results of measuring changes in tumor volume and weight after transplanting wild-type or scrambled siRNA RES and siNINJ2 RES cancer cell lines from the MKN-28/74 cell line into nude mice and then administering ECF and siRNA to the nude mice when the tumor volume reached 100 mm^3, according to one example of the present invention.
# A mouse model was prepared by xenografting Balb/c nude mice with the spheroids prepared from the MKN-28/74 cell line by the method of Example 3. Specifically, […] ECF-resistant cancer cells (ECF-R cancer cells) and parental cancer cells were subcutaneously injected into Balb/c nude mice, respectively, and an examination was made as to whether the animal model xenografted with the ECF-resistant cancer cells (RES) established in vitro had acquired ECF drug resistance. […] To this end, 5.7 mg/kg of epirubicin, 6.67 mg/kg of cisplatin and 22 mg/kg of 5-FU were administered intratumorally to xenograft model mice having a tumor size of 100 mm^3 once a week for 15 days, and the tumor weight and the tumor volume were measured every 3 days using digital calipers. […]
# Referring to FIG. 9A, it was confirmed that the tumor volume changed after the ECF drugs were administered to the animal model xenografted with each cell line group. FIG. 9B depicts graphs showing the results of quantifying the changes in the tumor volume and weight.
substance,measurement,setting,value
"clone-1: NINJ2-targeting shRNA, lentiviral; target region SEQ ID NO: 5, hairpin sequence SEQ ID NO: 9 (guide CCGGCGTGGTCATTGCACGGCTGAACTCGAGTTCAGCCGTGCAATGACCACGTTTTTG)",recurrence and regrowth of cancer cells compared to negative control (Mock),[1],significantly inhibited
"clone-2: NINJ2-targeting shRNA, lentiviral; target region SEQ ID NO: 6, hairpin sequence SEQ ID NO: 10 (guide CCGGCTGAACCTGAATGAGGTAGAACTCGAGTTCTACCTCATTCAGGTTCAGTTTTTG)",recurrence and regrowth of cancer cells compared to negative control (Mock),[1],significantly inhibited
"siNINJ2: siRNA against NINJ2, sense SEQ ID NO: 11 and antisense SEQ ID NO: 12 (sense GUAAGGCAUGUCUGUCUAAGGCC; antisense GGCCUUAGACAGACAUGCCUUAC; listed as RNA, chemistry not given here)",tumor volume compared to the RES group,[2],significantly decreased
same,tumor weight compared to the RES group,[2],significantly decreased
